In the assay the target is T1, TAFIa (Homo sapiens, UniProt Q96IY4).
T1 sequence (Q96IY4 115-423): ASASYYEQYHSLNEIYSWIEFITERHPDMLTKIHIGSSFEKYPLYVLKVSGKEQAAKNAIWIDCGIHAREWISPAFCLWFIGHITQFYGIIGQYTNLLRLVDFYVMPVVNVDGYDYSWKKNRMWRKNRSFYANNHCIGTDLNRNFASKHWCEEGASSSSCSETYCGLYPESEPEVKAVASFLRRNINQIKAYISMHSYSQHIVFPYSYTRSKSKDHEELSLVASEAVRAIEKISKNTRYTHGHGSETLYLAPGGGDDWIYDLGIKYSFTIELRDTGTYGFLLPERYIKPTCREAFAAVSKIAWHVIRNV
The assay is described as follows: Inhibition of TAFIa (hippuryl-Arg test). In kind it is biochemical. As to conditions: TAFIa 2 nM, hippuryl-arginine 5 mM, 45 minutes, relative to control containing the carrier; for inhibition at 0.01 µM: compound at 10 nM; for inhibition at 0.02 µM: compound at 20 nM. The protocol:
Human TAFI (4 nM) is incubated with human thrombin (10 nM) and human thrombomodulin (5 nM) in the presence of calcium (10 mM). After incubation for 20 minutes, the activation reaction is stopped by addition of PPACK (1 μM final), an irreversible thrombin inhibitor.
The reactions take place in Hepes buffer (25 mM Hepes, 137 mM NaCl, 3.5 mM KCl)+0.1% bovine albumin, pH 7.4 at 28° C. and with stirring.
The test compound is added to the solution of TAFIa (2 nM) and incubated for 45 minutes in the presence of hippuryl-arginine (5 mM). The reaction is stopped by addition of hydrochloric acid (1M) neutralised subsequently with sodium hydroxide (1M), and then the mixture is buffered with disodium hydroxyphosphate (1M pH 7.4). […] The reaction mixture is stirred (vortex) and then centrifuged. The supernatant is transferred to a 96-well microplate, and the absorbance is measured using a spectrophotometer at 405 nm (Spectramax plus, Molecular Devices).
The OD value of a well containing the reagents without TAFI is subtracted from all the OD values measured. The percentage inhibition of TAFIa at a given concentration of the test compound is determined by means of the following formula: % inhibition=100−[(OD compound×100)/OD carrier]
The compounds are evaluated at 10 nM and 20 nM under the experimental conditions described above and the results are expressed as the percentage inhibition relative to a control containing the carrier in the absence of compound.

Here are results for 19 compounds from patent US10138260B2, “Compounds of phosphinanes and azaphosphinanes, a process for their preparation and pharmaceutical compositions containing them” (LES LABORATOIRES SERVIER, priority 2016, dated 2018).

As a reminder, the inhibition is the percentage by which the read-out fell short of the control. A lower inhibition goes with little suppression.

Molecules are shown by their SMILES.

In turn, `NCCCC[C@@]1(C(=O)O)CN(Cc2ccc(O)cc2-c2cnc3ccccn23)CCP1(=O)O` [Example 224, (3S)-3-(4-AMINOBUTYL)-4-HYDROXY-1-[4-HYDROXY-2-(IMIDAZO[1,2-A]-PYRIDIN-3-YL)BENZYL]-4-OXO-1,4-AZAPHOSPHINANE-3-CARBOXYLIC ACID] gave an inhibition at 0.01 µM of 86% and an inhibition at 0.02 µM of 93%.
Taken in the same sequence, the figures for `CC(C)(C)c1ccccc1CN1CCP(=O)(O)[C@](CCCCN)(C(=O)O)C1` [Example 200, (3S)-3-(4-AMINOBUTYL)-1-[(2-TERT-BUTYLPHENYL)METHYL]-4-HYDROXY-4-OXO-1,4-AZAPHOSPHINANE-3-CARBOXYLIC ACID] were 28% and 46%.
Taken in the same sequence, the figures for `COc1ccc(-c2cc(F)ccc2CN2CCP(=O)(O)[C@](CCCCN)(C(=O)O)C2)cc1` [Example 187, (3S)-3-(4-AMINOBUTYL)-1-[[4-FLUORO-2-(4-METHOXYPHENYL)PHENYL]-METHYL]-4-HYDROXY-4-OXO-1,4-AZAPHOSPHINANE-3-CARBOXYLIC ACID] were 74% and 97%.
The matching figures for `NCCCC[C@@]1(C(=O)O)CN(Cc2ccc(O)cc2-c2ccncc2)CCP1(=O)O` [Example 225, (3S)-3-(4-AMINOBUTYL)-4-HYDROXY-1-[(4-HYDROXY-2-PYRIDIN-4-YLPHENYL)METHYL]-4-OXO-1,4-AZAPHOSPHINANE-3-CARBOXYLIC ACID]: 76% and 85%.
The compound `COc1ccc(-c2ccccc2CN2CCP(=O)(O)[C@](CCCCN)(C(=O)O)C2)cn1` [Example 196, (3S)-3-(4-AMINOBUTYL)-4-HYDROXY-1-[2-(6-METHOXYPYRIDIN-3-YL)BENZYL]-4-OXO-1,4-AZAPHOSPHINANE-3-CARBOXYLIC ACID] returned an inhibition at 0.01 µM of 77% and an inhibition at 0.02 µM of 91%.
The matching figures for `NCCCC[C@@]1(C(=O)O)CN(Cc2ccc(O)cc2-c2ccc(F)cc2)CCP1(=O)O` [Example 228, (3S)-3-(4-AMINOBUTYL)-1-[[2-(4-FLUOROPHENYL)-4-HYDROXYPHENYL]-METHYL]-4-HYDROXY-4-OXO-1,4-AZAPHOSPHINANE-3-CARBOXYLIC ACID]: 63% and 82%.
In turn, `Cn1nc(C(F)(F)F)cc1-c1ccccc1CN1CCP(=O)(O)[C@](CCCCN)(C(=O)O)C1` [Example 232, (3S)-3-(4-AMINOBUTYL)-4-HYDROXY-1-[[2-[2-METHYL-5-(TRIFLUOROMETHYL)-PYRAZOL-3-YL]PHENYL]METHYL]-4-OXO-1,4-AZAPHOSPHINANE-3-CARBOXYLIC ACID] showed an inhibition at 0.01 µM of 80% and an inhibition at 0.02 µM of 89%.
Taken in the same sequence, the figures for `NCCCC[C@@]1(C(=O)O)CN(Cc2ccc(F)cc2-c2ccc(F)cc2)CCP1(=O)O` [Example 189, (3S)-3-(4-AMINOBUTYL)-1-[[4-FLUORO-2-(4-FLUOROPHENYL)PHENYL]METHYL]-4-HYDROXY-4-OXO-1,4-AZAPHOSPHINANE-3-CARBOXYLIC ACID] were 71% and 78%.
As for `NCCCC[C@@]1(C(=O)O)CN(Cc2ccccc2-c2ccc(O)nc2)CCP1(=O)O` [Example 240, (3S)-3-(4-AMINOBUTYL)-4-HYDROXY-1-[[2-(6-HYDROXYPYRIDIN-3-YL)PHENYL]METHYL]-4-OXO-1,4-AZAPHOSPHINANE-3-CARBOXYLIC ACID], the inhibition at 0.01 µM came to 66% and testing at 0.02 µM gave an inhibition of 80%.
Taken in the same sequence, the figures for `NCCCCC1(C(=O)O)CN(Cc2ccc(Cl)cc2-c2ccc(Cl)cc2)CCP1(=O)O` (centres unmarked) [Example 113, 3-(4-AMINOBUTYL)-1-[[4-CHLORO-2-(4-CHLOROPHENYL)PHENYL]METHYL]-4-HYDROXY-4-OXO-1,4-AZAPHOSPHINANE-3-CARBOXYLIC ACID] were 68% and 90%.
The matching figures for `NCCCCC1(C(=O)O)CN(Cc2ccc(F)cc2-c2ccc(O)cc2)CCP1(=O)O` (centres unmarked) [Example 104, 3-(4-AMINOBUTYL)-1-[[4-FLUORO-2-(4-HYDROXYPHENYL)PHENYL]METHYL]-4-HYDROXY-4-OXO-1,4-AZAPHOSPHINANE-3-CARBOXYLIC ACID]: 37% and 68%.
The matching figures for `NCCCCC1(C(=O)O)CN(Cc2ccccc2-c2ccc(=O)[nH]c2)CCP1(=O)O` (centres unmarked) [Example 166, 3-(4-AMINOBUTYL)-4-HYDROXY-4-OXO-1-[[2-(6-OXO-1H-PYRIDIN-3-YL)PHENYL]METHYL]-1,4-AZAPHOSPHINANE-3-CARBOXYLIC ACID]: 66% and 93%.
Compound `NCCCC[C@@]1(C(=O)O)CN(Cc2ccccc2-c2cccc3cnccc23)CCP1(=O)O` [Example 214, (3S)-3-(4-AMINOBUTYL)-4-HYDROXY-1-[(2-ISOQUINOLIN-5-YLPHENYL)-METHYL]-4-OXO-1,4-AZAPHOSPHINANE-3-CARBOXYLIC ACID] returned an inhibition at 0.01 µM of 79% and an inhibition at 0.02 µM of 91%.
The matching figures for `NCCCC[C@@]1(C(=O)O)CN(Cc2ccc(F)cc2-c2cccnc2)CCP1(=O)O` [Example 190, (3S)-3-(4-AMINOBUTYL)-1-[(4-FLUORO-2-PYRIDIN-3-YLPHENYL)METHYL]-4-HYDROXY-4-OXO-1,4-AZAPHOSPHINANE-3-CARBOXYLIC ACID]: 88% and 95%.
The matching figures for `CS(=O)(=O)c1ccccc1-c1ccccc1CN1CCP(=O)(O)[C@](CCCCN)(C(=O)O)C1` [Example 208, (3S)-3-(4-AMINOBUTYL)-4-HYDROXY-1-[[2-(2-METHYLSULPHONYLPHENYL)-PHENYL]METHYL]-4-OXO-1,4-AZAPHOSPHINANE-3-CARBOXYLIC ACID]: 35% and 46%.
The matching figures for `NCCCC[C@@]1(C(=O)O)CN(Cc2ccc(Cl)cc2-c2ccc(Cl)cc2)CCP1(=O)O` [Example 195, (3S)-3-(4-AMINOBUTYL)-1-[[4-CHLORO-2-(4-CHLOROPHENYL)PHENYL]METHYL]-4-HYDROXY-4-OXO-1,4-AZAPHOSPHINANE-3-CARBOXYLIC ACID]: 74% and 87%.
`COc1ccc(-c2ccccc2CN2CCP(=O)(O)[C@](CCCCN)(C(=O)O)C2)cc1OC` [Example 248, (3S)-3-(4-AMINOBUTYL)-1-[[2-(3,4-DIMETHOXYPHENYL)PHENYL]METHYL]-4-HYDROXY-4-OXO-1,4-AZAPHOSPHINANE-3-CARBOXYLIC ACID] showed an inhibition at 0.01 µM of 87% and an inhibition at 0.02 µM of 95%.
Taken in the same sequence, the figures for `NCCCC[C@@]1(C(=O)O)CN(Cc2ccc(O)cc2-c2ccccc2)CCP1(=O)O` [Example 191, (3S)-3-(4-AMINOBUTYL)-4-HYDROXY-1-[(4-HYDROXY-2-PHENYLPHENYL)-METHYL]-4-OXO-1,4-AZAPHOSPHINANE-3-CARBOXYLIC ACID] were 66% and 83%.
The matching figures for `COc1ccc(-c2cc(F)ccc2CN2CCP(=O)(O)[C@](CCCCN)(C(=O)O)C2)cc1OC` [Example 179, (3S)-3-(4-AMINOBUTYL)-1-[[2-(3,4-DIMETHOXYPHENYL)-4-FLUOROPHENYL]-METHYL]-4-HYDROXY-4-OXO-1,4-AZAPHOSPHINANE-3-CARBOXYLIC ACID]: 74% and 83%.
